According to paper PMC6380468, “Investigations on small molecule inhibitors targeting the histone H3K4 tri-methyllysine binding PHD-finger of JmjC histone demethylases” (Bioorganic & Medicinal Chemistry, 2018):
Like-named read-outs stand apart in the source and are kept apart here.

Key:
KDM7A(PHD) = molecular target: T1, KDM7A(PHD) (Homo sapiens, UniProt Q6ZMT4); test: AlphaScreen displacement of H3K4me3-Bn from His-KDM7A(PHD); type: binding
T1 construct: made in house
T1 sequence (Q6ZMT4 37-88 limits assumed): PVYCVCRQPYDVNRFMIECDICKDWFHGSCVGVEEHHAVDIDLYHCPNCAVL
Procedure: (§1) For peptide displacement assays, 5 µL of the inhibitor dilution series (at a concentration of 4% DMSO in AlphaScreen assay buffer) was pre-incubated with 5 µL of the protein at RT for 15 minutes. Peptide solution (5 µL) was added and incubated for 30 minutes at RT, followed by the addition of 5 µL of a mixture of AlphaScreen Streptavidin donor beads and Nickel Chelate acceptor beads in AlphaScreen assay buffer (20 µg/mL final). The contents were incubated for 60-120 minutes at RT in the dark, followed by measurement of luminescence on a BMG Labtech Pherastar plate reader (Software Ver. 5.30 R3, Firmware Ver. 1.21). The data was plotted in Prism Ver 7.01 (GraphPad Software, Inc.) and fitted to a Log(inhibitor) v/s response – variable slope model in order to obtain IC50 values.

KDM7B(PHD) = molecular target: T2, KDM7B(PHD) (Homo sapiens, UniProt Q9UPP1); test: AlphaScreen displacement of H3K4me3-Bn from His-KDM7B(PHD); type: binding
T2 construct: made in house
T2 sequence (Q9UPP1 41-92 limits assumed): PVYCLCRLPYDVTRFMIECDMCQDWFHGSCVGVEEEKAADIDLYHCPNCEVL
Procedure: as §1

KDM7C(PHD) = molecular target: T3, KDM7C(PHD) (Homo sapiens, UniProt O75151); test: AlphaScreen displacement of H3K4me3-Bn from His-KDM7C(PHD); type: binding
T3 construct: made in house
T3 sequence (O75151 5-56 limits assumed): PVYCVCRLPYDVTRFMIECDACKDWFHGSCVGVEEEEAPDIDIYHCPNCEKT
Procedure: as §1

KDM7A (PHD-JmjC) [1] = molecular target: KDM7A (PHD-JmjC) (Homo sapiens, UniProt Q6ZMT4); test: AlphaScreen displacement of H3K4me3-Bn from His-KDM7A(PHD-JmjC); type: binding
Procedure: (§2) A dual-domain construct of KDM7A/B(PHD-JmjC), consisting of a JmjC domain in addition to the PHD-finger (Fig. 1B), was used to test for allosteric inhibition through binding at the PHD-finger.
as §1

KDM7B (PHD-JmjC) [2] = molecular target: T4, KDM7B (PHD-JmjC) (Homo sapiens, UniProt Q9UPP1); test: MALDI-TOF MS H3K9me2 demethylation assay, KDM7B(PHD-JmjC); type: biochemical; conditions: read-out: KDM7B (PHD-JmjC) (Catalytic), inhibition of H3K9me2 demethylation
T4 construct: A dual-domain construct of KDM7A/B(PHD-JmjC), consisting of a JmjC domain in addition to the PHD-finger; His; made in house
Procedure: H3(1–15)K9me2 and H3(1–5)K4me3K9me2 were used as substrates for KDM7A(PHD-JmjC) and KDM7B(PHD-JmjC), respectively. […] For KDM7B(PHD-JmjC), inhibition was most pronounced for 1a (95%) and 2a (89%) whilst others inhibited more weakly (Table 4).
For KDM7(PHD-JmjC) assays, 2.5 µM enzyme was used, with 5 µM H3(1-15)K9me2 peptide substrate for KDM7A or H3(1-15)K4me3K9me2 for KDM7B. Final concentrations were: 1mM ascorbate, 50 µM (NH4)2Fe(II)(SO4)2 and 200 µM 2OG. The mixture was quenched using formic acid after 10 minutes (KDM7A) or 5 minutes (KDM7B).

His-KDM5A(PHD3) = molecular target: T5, His-KDM5A(PHD3) (Homo sapiens, UniProt P29375); test: AlphaScreen displacement assay, H3K4me3-Bn from His-KDM5A(PHD3); type: binding
T5 construct: KDM5A(PHD3) (1542 – 1660), encoded by a pGTLV2 vector; made in house; host or cells: E. coli Rosetta 2(DE3)pLysS
T5 sequence (P29375 1542-1660): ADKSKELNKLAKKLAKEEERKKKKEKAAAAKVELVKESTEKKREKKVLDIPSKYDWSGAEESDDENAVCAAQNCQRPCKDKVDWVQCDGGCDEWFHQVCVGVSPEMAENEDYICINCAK
Procedure: AlphaScreen is a homogenous bead-based assay used to study protein-protein interactions.[28] […] AlphaScreen beads were then added and incubated for 1 h. Changes in the AlphaScreen signals with increasing inhibitor concentrations were then measured to quantify the level of KDM5A(PHD3) and H3K4me3 binding, and IC50 values were determined.
His-tagged PHD finger constructs and H3K4me3-Bn peptides were diluted into AlphaScreen assay buffer (50mM HEPES, 150mM NaCl, 0.1% BSA, 0.01% Tween20, pH 7.5). An 8-point 1:2 dilution series was made for both protein and peptide. With a multichannel pipette (LTS P10), 5 µL protein was dispensed into 8 columns of a 384-well plate, followed by 5 µL of 4% DMSO in AlphaScreen assay buffer. The mixture was incubated at room temperature for 15 minutes, followed by dispensing 5 µL peptide across 8 rows of the 384-well plate, forming a cross-gradient of protein and peptide. The contents were incubated for 30 minutes at room temperature, followed by the addition of 5 µL of a mixture of AlphaScreen Streptavidin donor beads and Nickel Chelate acceptor beads in AlphaScreen assay buffer (20 µg/mL final). The samples were incubated for 60-120 minutes at room temperature in the dark, followed by measurement of luminescence on a BMG Labtech Pherastar plate reader (Software Ver. 5.30 R3, Firmware Ver. 1.21). The data was plotted in Prism Ver 7.01 (GraphPad Software, Inc.) and fitted to a linear model in order to determine the optimal concentration of protein and peptide within the linear signal range for each reader domain.
as §1

[3] = AlphaScreen biotin-His6 counterscreen; conditions: AlphaScreen interference counterscreen with biotin-His6, DNC = data did not converge to binding model, NM = not measurable within the solubility range; for IC50: unit inferred; for Biotin-His6 counterscreen: unit not given
KDM7B (PHD-JmjC) [4] = molecular target: T4, KDM7B (PHD-JmjC); test: AlphaScreen displacement of H3K4me3-Bn from His-KDM7B(PHD-JmjC); type: binding
Procedure: as §2, §1

KDM7A (PHD-JmjC) [5] = test: MALDI-TOF MS H3K9me2 demethylation assay, KDM7A(PHD-JmjC); type: biochemical, human; conditions: at 100 µM, substrate H3(1–15)K9me2
Procedure: Final concentrations were: 1mM ascorbate, 50 µM (NH4)2Fe(II)(SO4)2 and 200 µM 2OG. The mixture was quenched using formic acid after 10 minutes (KDM7A) or 5 minutes (KDM7B).

[6] = AlphaScreen, 6.25 nM KDM7A(PHD) and 25 nM peptide, n ≥ 3, read-out: IC50 for displacement of H3K4me3-Bn from His-KDM7A(PHD)
[7] = AlphaScreen, 12.5 nM protein and 12.5 nM peptide, n ≥ 3, read-out: IC50 for displacement of H3K4me3-Bn from His-KDM7B(PHD)
[8] = AlphaScreen, 25 nM KDM7C(PHD) and 6.25 nM peptide, n ≥ 3, read-out: IC50 for displacement of H3K4me3-Bn from His-KDM7C(PHD)
[9] = AlphaScreen displacement of H3K4me3-Bn, n = 3, NI = No inhibition seen at 100 μM, read-out: IC50 KDM7A (PHD-JmjC) (Displacement)
[10] = at 100 µM, MALDI-TOF MS, substrate H3(1–5)K4me3K9me2
[11] = AlphaScreen, 25 nM protein and 25 nM peptide, average ± StdDev, n ≥ 3, NM = not measurable within the solubility range, read-out: IC50 for displacement of H3K4me3-Bn from His-KDM5A(PHD3)

Sequence of KDM7A (PHD-JmjC) (Homo sapiens, UniProt Q6ZMT4) (Q6ZMT4 37-386 limits assumed): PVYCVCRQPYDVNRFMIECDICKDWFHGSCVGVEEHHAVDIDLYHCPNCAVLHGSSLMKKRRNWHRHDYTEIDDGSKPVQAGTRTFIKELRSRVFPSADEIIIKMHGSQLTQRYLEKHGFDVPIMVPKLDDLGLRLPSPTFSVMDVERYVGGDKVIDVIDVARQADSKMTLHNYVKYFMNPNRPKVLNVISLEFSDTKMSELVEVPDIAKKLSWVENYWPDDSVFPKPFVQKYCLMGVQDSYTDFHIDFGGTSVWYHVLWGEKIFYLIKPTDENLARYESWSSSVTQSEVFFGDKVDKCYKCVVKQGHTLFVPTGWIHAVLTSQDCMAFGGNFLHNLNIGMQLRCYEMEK
T4 sequence (Q9UPP1 37-483 limits assumed): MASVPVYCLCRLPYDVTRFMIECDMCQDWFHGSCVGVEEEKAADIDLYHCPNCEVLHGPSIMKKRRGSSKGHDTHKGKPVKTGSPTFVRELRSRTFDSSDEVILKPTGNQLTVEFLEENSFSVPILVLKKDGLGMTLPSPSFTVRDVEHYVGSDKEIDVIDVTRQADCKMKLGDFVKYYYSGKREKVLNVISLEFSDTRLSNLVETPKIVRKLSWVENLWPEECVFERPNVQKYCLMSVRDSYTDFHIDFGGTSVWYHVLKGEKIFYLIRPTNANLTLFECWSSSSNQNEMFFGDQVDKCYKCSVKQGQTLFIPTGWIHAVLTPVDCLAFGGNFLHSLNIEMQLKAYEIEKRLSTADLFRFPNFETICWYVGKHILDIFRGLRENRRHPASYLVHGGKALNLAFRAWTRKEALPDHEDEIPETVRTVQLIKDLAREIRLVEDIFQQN

SMILES	IC50 (KDM7A(PHD); [6]) [µM]	IC50 (KDM7B(PHD); [7]) [µM]	IC50 (KDM7C(PHD); [8]) [µM]	IC50 (KDM7A (PHD-JmjC) [1]; [9]) [µM]	inhibition at 100 µM (KDM7B (PHD-JmjC) [2]; [10]) [%]	IC50 (His-KDM5A(PHD3); [11]) [µM]	IC50 [3] [µM]	IC50 (KDM7B (PHD-JmjC) [4]; AlphaScreen displacement of H3K4me3-Bn, n = 3, NI = No inhibition seen at 100 μM, read-out: IC50 KDM7B (PHD-JmjC) (Displacement)) [µM]	KDM7A (PHD-JmjC) (Catalytic), inhibition of H3K9me2 demethylation (KDM7A (PHD-JmjC) [5])	IC50 (His-KDM5A(PHD3)) [µM]	IC50 (KDM7A(PHD)) [µM]	IC50 (KDM7B(PHD)) [µM]	IC50 (KDM7C(PHD)) [µM]	IC50 (KDM7A (PHD-JmjC) [1]) [µM]	IC50 (KDM7B (PHD-JmjC) [4]) [µM]	inhibition at 100 µM (KDM7B (PHD-JmjC) [2]) [%]	Biotin-His6 counterscreen [3]
CCCCc1oc2ccccc2c1C(=O)c1cc(I)c(OCCN(CC)CC)c(I)c1 [AMI, amiodarone, reference compound]	156 ± 12	252 ± 53	84 ± 14	80 ± 26	22	–	–	–	–	–	–	–	–	–	–	–	–
Cc1oc2ccccc2c1C(=O)c1ccc(OCCC[N+](C)(C)C)cc1.[I-] [Compound 2b, N,N,N-trimethyl-3-(4-(2-methylbenzofuran-3-carbonyl)phenoxy)propan-1-aminium iodide]	108 ± 15	310 ± 78	598 ± 119	5.6 ± 1.5	32	844 ± 23	6290 ± 1860	126 ± 34	100% (100 µM)	–	–	–	–	–	–	–	–
Cc1sc2ccccc2c1C(=O)c1ccc(OCCC[N+](C)(C)C)cc1 [Compound 2c, N,N,N-Trimethyl-3-(4-(2-methylbenzo[b]thiophene-3-carbonyl)phenoxy)propan-1-aminium iodide]	104 ± 8	377 ± 76	501 ± 75	–	–	533 ± 109	805 ± 55	–	–	–	–	–	–	–	–	–	–
Cn1cc(C(=O)c2ccc(OCCC[N+](C)(C)C)cc2)c2ccccc21.[I-] [Compound 2d, N,N,N-trimethyl-3-(4-(1-methyl-1H-indole-3-carbonyl)phenoxy)propan-1-aminium iodide]	–	–	–	–	–	–	970 ± 60	–	100% (100 µM)	1310 ± 39	98 ± 10	697 ± 154	682 ± 97	88 ± 17	> 300	24	–
CCCCc1oc2ccccc2c1C(=O)c1ccccc1OCCC[N+](C)(C)C.[I-] [Compound 7a]	102 ± 15	496 ± 181	1290 ± 280	–	–	1150 ± 100	–	–	–	–	–	–	–	–	–	–	DNC ^a
Cc1oc2ccccc2c1C(=O)c1ccccc1OCCC[N+](C)(C)C.[I-] [Compound 7b]	326 ± 14	286 ± 84	533 ± 99	–	–	2300 ± 82	–	–	–	–	–	–	–	–	–	–	DNC ^a
